Measurements from patent US5493020A, “Tricyclic inhibitors of the GPIIb IIIa receptor” (Genentech, Inc., priority 1993, dated 1996).
Where two headings read alike, the source gives them in different places.

Key:
[1] = tested on: human platelet rich plasma (platelet aggregation); assay: platelet aggregation (PA) inhibition assay in human platelet rich plasma; type: cell-based
Protocol: In addition to the GPIIb IIIa ELISA assay, platelet aggregation assays may be performed in human platelet rich plasma (PRP). […] The blood is centrifuged at 160×g for 10 min at 22° C. and then allowed to stand for 5 min after which the PRP is decanted. Platelet poor plasma (PPP) is isolated from the remaining blood after centrifugation at 2000×g for 25 min. The platelet count of the PRP is adjusted to ca. 300,000 per microliter with PPP.
A 225 mL aliquot of PRP plus 25 mL of either a dilution of the test sample or a control (PBS) is incubated for 5 min in a Chrono-log Whole Blood Aggregometer at 25° C. An aggregating agent (collagen, 1 mg/ml; U46619, 100 ng/ml; or ADP, 8 mM) is added and the platelet aggregation recorded.

[2] = target: T1, human platelet GPIIbIIIa receptor (Homo sapiens, UniProt P05106+P08514); assay: modified fibrinogen-GPIIbIIIa ELISA (inhibition of fibrinogen binding to purified human platelet GPIIbIIIa receptor)
T1 construct: purified human platelet GPIIbIIIa receptor; from tissue; host or cells: human platelets (purified, solubilized receptor)
Protocol: In-vitro biological activity of the compounds of Formula I and II are monitored using a modified fibrinogen-GPIIbIIIa ELISA based on the method of Nachman and Leung (J. Clin. Invest. 69:263-269 (1982)) which measures the inhibition of fibrinogen binding to purified human platelet GPIIbIIIa receptor. Human fibrinogen is prepared by the method of Lipinska, et al. (J. Lab. Clin. Med. 84:509-516 (1974)). Platelet GPIIb IIIa is prepared by the method of Fitzgerald, et al., Anal. Biochem.,151:169-177 (1985).
Briefly, microtiter plates are coated with fibrinogen ([…]) and then blocked with TACTS buffer containing 0.5% bovine serum albumin (BSA). (TACTS buffer contains 20mM Tris.HCl, pH 7.5, 0.02% sodium azide, 2 mM calcium chloride, 0.05% Tween 20, 150 mM sodium chloride.) The plate is washed with phosphate buffered saline (PBS) containing 0.01% Tween 20 and the sample to be determined added, followed by addition of solubilized GP IIbIIIa receptor ([…]) in TACTS, 0.5% BSA. After incubation, the plate is washed and 1 mg/ml of murine anti-platelet monoclonal antibody AP3 (Newman et al., Blood 65:227-232 (1985)) is added. After another wash a goat anti-mouse IgG conjugated to horseradish peroxidase is added. A final wash is performed and developing reagent buffer (10 mg o-phenylenediamine dihydrochloride, 0.0212% hydrogen peroxide, 0.22 mM citrate, 50 mM phosphate, pH 5.0) is added and then incubated until color develops. The reaction is stopped with 1N sulfuric acid and the absorbance at 492 nm is recorded.

[3] = target: GPIIb IIIa; conditions: result in words, EP 372 486 (Hoffmann La Roche); cited from earlier work
[4] = Platelet, read-out: IC50 PA(citrate)
[5] = ELISA, read-out: IC50 Fg/IIbIIIa
[6] = Platelet, read-out: IC50 PA(heparin)
[7] = platelet aggregation, citrate, read-out: IC50 PA(citrate)
[8] = platelet aggregation, heparin, read-out: IC50 PA(heparin)

T1 sequence (P08514 32-887 limits assumed): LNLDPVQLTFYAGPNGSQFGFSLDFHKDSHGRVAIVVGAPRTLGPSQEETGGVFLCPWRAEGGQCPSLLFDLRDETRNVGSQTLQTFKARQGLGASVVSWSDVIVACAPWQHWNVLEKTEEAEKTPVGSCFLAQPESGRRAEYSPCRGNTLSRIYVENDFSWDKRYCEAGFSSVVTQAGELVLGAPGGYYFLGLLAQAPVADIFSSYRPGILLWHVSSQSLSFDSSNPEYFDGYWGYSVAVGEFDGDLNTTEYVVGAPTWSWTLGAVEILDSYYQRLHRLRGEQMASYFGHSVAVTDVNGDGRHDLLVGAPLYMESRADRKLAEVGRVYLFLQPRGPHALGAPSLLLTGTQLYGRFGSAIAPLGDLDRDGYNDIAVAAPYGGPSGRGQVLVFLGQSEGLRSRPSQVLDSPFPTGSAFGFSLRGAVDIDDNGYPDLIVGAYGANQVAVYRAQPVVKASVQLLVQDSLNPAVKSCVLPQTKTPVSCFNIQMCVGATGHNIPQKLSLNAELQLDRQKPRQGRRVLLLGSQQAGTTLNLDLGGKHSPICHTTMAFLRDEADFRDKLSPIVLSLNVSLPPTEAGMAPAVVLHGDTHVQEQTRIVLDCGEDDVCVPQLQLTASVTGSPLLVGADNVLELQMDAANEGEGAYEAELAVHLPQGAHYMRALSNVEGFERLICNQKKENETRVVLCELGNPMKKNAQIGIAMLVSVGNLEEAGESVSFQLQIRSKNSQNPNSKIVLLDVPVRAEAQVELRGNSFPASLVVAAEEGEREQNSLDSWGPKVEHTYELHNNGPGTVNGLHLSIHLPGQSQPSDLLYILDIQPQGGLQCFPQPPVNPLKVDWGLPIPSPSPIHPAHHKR
T1 sequence (P08514 891-1039 limits assumed): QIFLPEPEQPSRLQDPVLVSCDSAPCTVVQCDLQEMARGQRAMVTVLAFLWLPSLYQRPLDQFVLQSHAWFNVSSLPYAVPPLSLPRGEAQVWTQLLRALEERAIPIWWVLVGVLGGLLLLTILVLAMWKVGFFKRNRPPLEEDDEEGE
T1 sequence (P05106 27-788): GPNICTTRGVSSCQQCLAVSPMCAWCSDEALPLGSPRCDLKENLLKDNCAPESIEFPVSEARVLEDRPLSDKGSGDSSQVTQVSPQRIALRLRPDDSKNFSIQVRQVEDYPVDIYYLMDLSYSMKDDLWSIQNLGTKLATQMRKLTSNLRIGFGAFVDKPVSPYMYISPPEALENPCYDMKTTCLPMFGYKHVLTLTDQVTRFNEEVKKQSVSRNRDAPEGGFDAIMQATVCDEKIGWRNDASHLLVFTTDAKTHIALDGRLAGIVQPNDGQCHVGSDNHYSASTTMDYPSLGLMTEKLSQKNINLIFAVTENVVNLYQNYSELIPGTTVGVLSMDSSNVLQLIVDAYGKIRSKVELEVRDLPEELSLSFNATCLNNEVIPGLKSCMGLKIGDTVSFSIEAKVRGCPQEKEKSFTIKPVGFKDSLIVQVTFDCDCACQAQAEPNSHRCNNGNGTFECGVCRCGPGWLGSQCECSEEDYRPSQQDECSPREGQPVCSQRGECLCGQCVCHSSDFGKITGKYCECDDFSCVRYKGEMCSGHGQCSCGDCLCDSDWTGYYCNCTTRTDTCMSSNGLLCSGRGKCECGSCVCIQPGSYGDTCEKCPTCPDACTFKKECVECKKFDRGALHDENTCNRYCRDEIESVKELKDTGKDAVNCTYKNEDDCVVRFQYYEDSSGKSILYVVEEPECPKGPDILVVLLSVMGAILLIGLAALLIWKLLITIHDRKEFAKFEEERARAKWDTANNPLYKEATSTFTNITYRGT

Cc1cnc2n1-c1ccc(C#CCCCCN)cc1C(=O)N(CCC(=O)O)C2 [H2 N(CH2)4 CC]
IC50 [1, 4]: 8.29 µM | IC50 [2, 5]: 0.057 µM

N=C(N)c1ccc(C(=O)Nc2cccc(C(=O)NCCC(=O)O)c2)cc1 [N-[3-(4-amidinobenzamido)benzoyl]-3-aminoproprionoic acid, reference compound]
IC50 ([1]; Platelet, internal standard, measured according to the assays described herein, anticoagulant not stated, read-out: PA inhibition assay IC50): ~3 µM | IC50 ([2]; internal standard, measured according to the assays described herein, read-out: Fg/GPIIb IIIa ELISA IC50): ~0.025 µM

N=C(N)c1ccc(C(=O)Nc2cccc(C(=O)NCCC(=O)O)c2)cc1 [drawing 2]
IC50 in an ELISA measurement of fibrinogen GPIIb IIIa binding [3]: particular low IC50

Cc1cnc2n1-c1ccc(C#Cc3ccc(C(=N)N)cc3)cc1C(=O)N(CCC(=O)O)C2 [p-H2 N(NH)CC6 H4 CC]
IC50 [1, 4]: 0.093 µM | IC50 [1, 6]: 0.24 µM | IC50 [2, 5]: 0.004 µM

Cc1cnc2n1-c1ccc(OCc3ccc(C(=N)N)cc3)cc1C(=O)N(CCC(=O)O)C2 [p-H2 N(NH)CC6 H4 CH2 O]
IC50 [1, 4]: 0.133 µM | IC50 [1, 6]: 0.22 µM | IC50 [2, 5]: 0.009 µM

Cc1nnc2n1-c1ccc(OCc3ccc(C(=N)N)cc3)cc1C(=O)N(CCC(=O)O)C2 [p-H2 N(NH)CC6 H4 CH2 O]
IC50 [1, 7]: 0.005 µM | IC50 [1, 8]: 0.086 µM

N=C(N)c1ccc(COc2ccc3c(c2)C(=O)N(CCC(=O)O)Cc2nc4ccccc4c(=O)n2-3)cc1 [p-H2 N(NH)CC6 H4 CH2 O]
IC50 [1, 7]: 0.54 µM | IC50 [1, 8]: 1.7 µM
